Laboratory results published in patent US7132258B1, “Nucleic acid encoding vitamin D receptor related polypeptide” (University of Massachusetts, priority 1998, dated 2006).
Entries after “also recorded” stand apart in the source; their conditions may differ.

Test system: RAC3 message
Assay: Northern blot analysis of RAC3 expression in HL-60 cells
Type: cell-based, human
Method: The expression of RAC3 was examined with Northern blot analysis using standard methods. A single message of about 7.5 kb was detected in human HL60 cells as well as in mouse embryonic tissues. […] Thus, a positive feedback regulatory network may operate in which RAC3 binding to RA-RAR complex activates transcription which, in turn, increases transcription of RAC3.
Cells were treated with different concentration of RA (0, 10, 100, 1000 nM) for a period of 12 hours. In the control group, cells were treated with equal volume of solvent (80% EtOH plus 20% DMSO). Total RNAs were isolated using an RNA isolation kit (RNAzol) and separated on a 1% agarose gel with 2.2 M formaldehyde and blotted onto nylon filters. Filters were hybridized with random-primed ^32P-labeled DNA probes specific for RAC3, Tw2, and SRC1 in hybridization buffer (50% formamide, SX SSPE [1×SSPE is 0.18 M NaCl, 10 mM NaPO4, and 1 mM EDTA at pH 7.7], 2× Denhardt solution, 0.1% SDS, 0.1 mg of sheared herring sperm DNA per ml) at 42° C. overnight. […]
The expression patterns of RAC3 in different human tissues and cancer cells were examined and compared with that of SRC-1 and TIF2. […] Total RNA (20 μg) of HL-60 cells treated with indicated concentrations of atRA for 12 hours or with 1 μM tRA plus 10 μM cycloheximide (CHX) were analyzed for RAC3 message by Northem blot analysis. […]

| SMILES | expression of RAC3 (HL60 cells treated with atRA) | effect on stimulation of RAC3 expression by atRA (HL60 cells, addition of cycloheximide) |
| --- | --- | --- |
| CC1=C(/C=C/C(C)=C/C=C/C(C)=C/C(=O)O)C(C)(C)CCC1 [atRA, all-trans retinoic acid] | up-regulated; also recorded: significantly enhances |  |
| C[C@@H]1C[C@@H]([C@H](O)CC2CC(=O)NC(=O)C2)C(=O)[C@@H](C)C1 [cycloheximide] |  | does not have an effect |
